Results: patent US20200071357A1, “ANTIMICROBIAL PEPTIDES” (UNIVERSITETET I TROMSØ - NORGES ARKTISKE UNIVERSITET, priority 2016, published 2020)
Like-named read-outs stand apart in the source and are kept apart here. Where no end group is shown, it is not given here.

Columns and labels:
Type in all cases: cell-based
[1] = system: Pseudomonas aeruginosa (Pa, ATCC 27853)
Protocol: (§1) The peptides were screened for antibacterial activity against two strains of Gram-positive and two strains of Gram-negative bacteria; Corynebacterium glutamicum (Cg, ATCC 13032), Staphylococcus aureus (Sa, ATCC 9144), Pseudomonas aeruginosa (Pa, ATCC 27853) and Escherichia coli (Ec, ATCC 25922).
(§2) Cultures stored at −80° C. in glycerol were transferred to Müller-Hinton plates (MH, Difco, Lawrence, Kans., USA) and incubated for 24 h at 35° C. A few colonies of each bacterial strain were transferred to 5 ml liquid MH medium and left shaking at room temperature overnight at 600 rpm. Cultures of actively growing bacteria (20 μl) were inoculated in 5 ml MH medium and left shaking for 2 h at room temperature. The antibacterial assays were performed as previously described by Sperstad, S. V., et al. ((2009) Mol. Immunol. 46, 2604-2612) with the following exception: bacterial cultures were diluted with medium to 2.5-3×10^4 bacteria/ml concentrations. An aliquot of 50 μl (1250-1500 bacterial cells) was added to each well in 96-well Nunclon™ microtiter plates (Nagle Nunc Int., Denmark) preloaded with peptide solution (50 μl).
(§3) The microtiter plates were incubated for 24 h at 35° C. with optical density recorded every hour using an Envision 2103 multilabel reader, controlled by a Wallac Envision manager (PerkinElmer, Conn., USA). Minimum inhibitory concentration (MIC) was defined as a sample showing complete inhibition (as measured by optical density at 595 nm) compared to the negative (growth) controls, consisting of bacteria and water. Oxytetracycline (20 μM) served as a positive (inhibition) control.
(§4) The synthetic peptides were tested for antibacterial activity in concentrations ranging from 200 to 0.1 μM in two-fold dilutions. All tests were performed in triplicates.

[2] = system: Corynebacterium glutamicum (Cg, ATCC 13032)
Protocol: as §1, §2, §3, §4

[3] = system: Staphylococcus aureus (Sa, ATCC 9144)
Protocol: as §1, §2, §3, §4

[4] = system: Escherichia coli (Ec, ATCC 25922)
Protocol: as §1, §2, §3, §4

human red blood cells = experiment: Haemolytic assay; conditions: for Haemolysis (%) 25 μM: peptide 25 μM; for Haemolysis (%) 25 μM / Haemolysis (%) 200 μM: human red blood cells, one hour at 37° C.; for Haemolysis (%) 200 μM: peptide 200 μM
Protocol: Selected synthesised peptide analogues were also screened for haemolytic activity using human red blood cells as described previously (Sperstad, S. V., et al. (2009) Dev. Comp. Immunol. 33, 583-591). The assay was performed on 96-well U-shaped microtiter plates (Nagle Nunc) with 50 μl peptide sample, 40 μl phosphate-buffered saline (PBS) and 10 μl red blood cells. After one hour of incubation at 37° C. in a shaker, the plate was centrifuged at 200 g for 5 min and the supernatants (60 μl) were carefully transferred to a new flat-bottomed polycarbonate microtiter plate (Nagle Nunc) and the release of haemoglobin (absorbance at 550 nm) was measured on a Synergy H1 multimode reader (BioTek, Vt., USA). Cell suspension added 0.05% Triton X-100 (Sigma-Aldrich, Mo., USA) in PBS served as positive (100% haemolysis) control and cell suspension added PBS served as negative (0% haemolysis, blank) control. The percent haemolysis was calculated using the formula [(Asample-Abaseline)/(Atriton-Abaseline)]×100. The cytotoxic peptide melittin (Sigma-Aldrich) was used as a positive control peptide and for comparison. The experiment was performed in triplicates with peptide concentrations ranging from 200 μM to 1.56 μM in two-fold dilutions.

[5] = system: Candida albicans (ATCC 10231); conditions: ATCC 10231, 24 h
Protocol: (§5) The synthetic peptides were also screened for antifungal activity against Candida albicans (ATCC 10231), Aureobasidium pullulans and Rhodotorula sp. (the last two were obtained from Professor Arne Tronsmo, The Norwegian University of Life Sciences, As, Norway). The antifungal assay was performed as previously described (Sperstad, S. V., et al. (2009) Dev. Comp. Immunol. 33, 583-591). Briefly, fungal spores were dissolved in potato dextrose broth (Difco, Lawrence, Kans., USA) to a concentration of 4×10^5 spores/ml. The spores (50 μl) were inoculated on 96-well Nunclon™ microtiter plates containing the synthetic peptides (50 μl) dissolved in MQ-H2O. […] The negative (growth) control consisted of medium and fungal solution. The peptides were tested for activity in concentrations ranging from 100 to 0.1 μM in two-fold serial dilutions. All tests were performed in triplicates.

Aureobasidium pullulans = conditions: 24 h
Protocol: as §5

Rhodotorula sp. = conditions: 24 h
Protocol: as §5

[6] = system: A. pullulans, Rhodotorula sp. and C. albicans
Protocol: as §5

## GWWRRTVAKARK-NH2 [Peptide V10A, GWWRRTVAKARK-NH2]
[1]; ATCC 27853, 24 h
  MIC (μM) Pa: 6.3 µM
[2]; ATCC 13032, 24 h
  MIC (μM) Cg: 1.6 µM
[3]; ATCC 9144, 24 h
  MIC (μM) Sa: 100 µM
[4]; ATCC 25922, 24 h
  MIC (μM) Ec: 12.5 µM
Human red blood cells
  Haemolysis (%) 25 μM: 0.0%
  Haemolysis (%) 200 μM: 1.0%
[5]
  MIC (μM) C. albicans: 25 µM
Aureobasidium pullulans
  MIC (μM) A. pullulans: 50 µM
Rhodotorula sp.
  MIC (μM) Rhodotorula sp.: 12.5 µM

## GWWRRTAAKVRK-NH2 [Peptide V7A, GWWRRTAAKVRK-NH2]
[1]; ATCC 27853, 24 h
  MIC (μM) Pa: 12.5 µM
[2]; ATCC 13032, 24 h
  MIC (μM) Cg: 1.6 µM
[3]; ATCC 9144, 24 h
  MIC (μM) Sa: 100 µM
[4]; ATCC 25922, 24 h
  MIC (μM) Ec: 12.5 µM
Human red blood cells
  Haemolysis (%) 25 μM: 0.0%
  Haemolysis (%) 200 μM: 0.0%
[5]
  MIC (μM) C. albicans: 25 µM
Aureobasidium pullulans
  MIC (μM) A. pullulans: 25 µM
Rhodotorula sp.
  MIC (μM) Rhodotorula sp.: 12.5 µM

## GWWRRTVAKVRK-NH2 [HC(1-12)A8K12, GWWRRTVAKVRK-NH2]
[1]; ATCC 27853
  MIC (μM) Pa: 6.3 µM
[1]; ATCC 27853, 24 h
  MIC (μM) Pa: 3.1 µM
[2]; ATCC 13032
  MIC (μM) Cg: 0.4 µM
[3]; ATCC 9144
  MIC (μM) Sa: 6.3 µM
[3]; ATCC 9144, 24 h
  MIC (μM) Sa: 25 µM
[4]; ATCC 25922
  MIC (μM) Ec: 6.3 µM
[4]; ATCC 25922, 24 h
  MIC (μM) Ec: 6.3 µM
Human red blood cells; at concentrations closer to the MIC-values
  haemolytic activity: negligible
Human red blood cells
  Haemolysis (%) 25 μM: 2.4%
  Haemolysis (%) 200 μM: 25.1%
Human red blood cells; listed as lead peptide
  Haemolysis (%) 200 μM: 25%
[6]
  antifungal MICs (range over the three fungi): 1.6 to 6.3 µM
